{"source": "paper PMC11173382", "about": "“In Vitro Investigations into the Potential Drug Interactions of Pseudoginsenoside DQ Mediated by Cytochrome P450 and Human Drug Transporters” (Molecules, 2024)", "key": {"[1]": {"target": "T1, hOCT2 (Homo sapiens, UniProt O15244)", "T1 construct": "host or cells: S2-OCT2", "T1 sequence (O15244 1-555)": "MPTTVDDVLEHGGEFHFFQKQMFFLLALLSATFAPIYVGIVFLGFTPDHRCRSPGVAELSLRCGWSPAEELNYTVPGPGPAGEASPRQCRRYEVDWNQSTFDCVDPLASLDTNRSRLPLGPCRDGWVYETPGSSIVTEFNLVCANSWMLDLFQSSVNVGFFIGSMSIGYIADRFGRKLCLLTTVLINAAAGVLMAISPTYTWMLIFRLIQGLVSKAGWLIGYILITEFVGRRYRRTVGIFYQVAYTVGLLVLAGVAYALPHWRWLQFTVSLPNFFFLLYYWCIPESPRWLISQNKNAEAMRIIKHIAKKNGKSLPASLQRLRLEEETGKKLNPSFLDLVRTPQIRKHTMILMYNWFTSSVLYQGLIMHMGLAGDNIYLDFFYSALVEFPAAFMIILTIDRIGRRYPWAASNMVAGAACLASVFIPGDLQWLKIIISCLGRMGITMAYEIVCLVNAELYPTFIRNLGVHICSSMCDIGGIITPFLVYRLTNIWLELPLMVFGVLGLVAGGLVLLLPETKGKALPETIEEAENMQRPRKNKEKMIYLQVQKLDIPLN", "assay": "Substrates uptake assay, S2-OCT2 cells (14C-TEA)", "assay_type": "in vitro ADME", "settings": "for Transport activity of OCT2 (main text: percentage inhibition): negative control = 100%", "description": "Drug transporters mediate the cellular uptake and efflux of their substrates. Therefore, cell lines overexpressing a drug transporter can be utilized to investigate inhibitors of the transporter by assessing changes in substrate uptake. For each drug transporter, we selected a well-characterized inhibitor as the positive control. Radiolabeled substrates were used to indicate the decrease in transport efficiency when the drug transporters were inhibited by PDQ or the control inhibitors.\nThe concentrations of the control drugs and the substrates were stated in the assay details. Working solutions of the control inhibitors, the radiolabeled substrates, and each dose of PDQ were prepared at 200 times (200×) more concentrated solutions with DMSO for further dilution.\nTransporter-overexpressed cell lines. Human organic anion transporter-overexpressed cell lines MDCKII-OAT1 and S2-OAT3, human organic anion transport polypeptide-overexpressed cell lines HEK293A-OATP1B1 and HEK293A-OATP1B3, human organic cation transporter 2-overexpressed cell line S2-OCT2, and human multi-drug resistance protein MDR1 (or P-gp)-overexpressed cell line MDCKII-MDR1 were gifts from Japan Fuji Biomedical Co., Ltd. (Fuji, Shizuoka Prefecture, Japan). Breast cancer resistance protein-overexpressed vesicles (sf9-BCRP vesicle) were purchased from GenoMembrane Co., Ltd. (Yokohama, Kanagawa, Japan).\nSubstrates uptake assay. In this assay, we studied the inhibition of PDQ against transporters OAT1, OAT3, OCT2, OATP1B1 and OATP1B3 with MDCKII-OAT1, S2-OAT3, S2-OCT2, HEK293A-OATP1B1and HEK293A-OATP1B3 cells, respectively. The radiolabeled substrates for OAT1, OAT3, OATP1B1, OATP1B3 and OCT2 were […], respectively (Table 5). Probenecid ([…]) was the positive control inhibitor of OAT1 and OAT3, while rifampicin ([…]) served as the control drug of OATP1B1 and OATP1B3. For OCT2, we used […] cimetidine to compare with the inhibitory effect of PDQ. Two times (2×) more concentrated working solutions of the drugs and the substrate were prepared with Dulbecco’s phosphate-buffered saline (DPBS, Gibco, Grand Island, NY, USA.). Then, an equal volume of 2× drug solution and 2× radiolabeled substrate solution were mixed as the working mix. All reagents were pre-warmed to 37 °C.\nThe cells were digested with 0.05% trypsin/EDTA. The density of the single-cell suspension was adjusted to 2.0 × 10^5 cells/mL for S2 cells and to 1.5 × 10^5 cells/mL for MDCK II and HEK293A cells. The cell suspension was then added to the reservoirs of the 24-well plate for culture until full confluency. The medium in the wells was removed, and the wells were washed with DPBS. Then, the plate was incubated for 10 min with pre-warmed DPBS in the wells. After removing DPBS, […] of working mix was added to each well to initiate the substrate uptake process. The reaction time was 5 min for S2-OCT2 cells, while the other four types of cells were incubated with the reaction mix for 2 min. Cold DPBS was used to terminate the substrate transportation. To each well, […] NaOH ([…]) was added to lyse the cells. Then, […] cell lysate was transferred to the counting vials, and 3 mL scintillation cocktail (Aquasol-2, PerkinElmer, Waltham, MA, USA) was added. […] Each sample was replicated three times (N = 3).\nIn = [100 × (U − U0)/(Uc − U0)]%(3)\nThe results were expressed as mean ± standard deviation (SD) and analyzed with GraphPad Prism 8.0 software (CA, USA). The IC50 of PDQ was curve-fitted with the FORECAST function. Statistical significance was calculated using a two-tailed test, and a p value < 0.05 was considered as significant."}, "[2]": {"target": "T2, hOATP1B1 (Homo sapiens, UniProt Q9Y6L6)", "T2 sequence (Q9Y6L6 1-691)": "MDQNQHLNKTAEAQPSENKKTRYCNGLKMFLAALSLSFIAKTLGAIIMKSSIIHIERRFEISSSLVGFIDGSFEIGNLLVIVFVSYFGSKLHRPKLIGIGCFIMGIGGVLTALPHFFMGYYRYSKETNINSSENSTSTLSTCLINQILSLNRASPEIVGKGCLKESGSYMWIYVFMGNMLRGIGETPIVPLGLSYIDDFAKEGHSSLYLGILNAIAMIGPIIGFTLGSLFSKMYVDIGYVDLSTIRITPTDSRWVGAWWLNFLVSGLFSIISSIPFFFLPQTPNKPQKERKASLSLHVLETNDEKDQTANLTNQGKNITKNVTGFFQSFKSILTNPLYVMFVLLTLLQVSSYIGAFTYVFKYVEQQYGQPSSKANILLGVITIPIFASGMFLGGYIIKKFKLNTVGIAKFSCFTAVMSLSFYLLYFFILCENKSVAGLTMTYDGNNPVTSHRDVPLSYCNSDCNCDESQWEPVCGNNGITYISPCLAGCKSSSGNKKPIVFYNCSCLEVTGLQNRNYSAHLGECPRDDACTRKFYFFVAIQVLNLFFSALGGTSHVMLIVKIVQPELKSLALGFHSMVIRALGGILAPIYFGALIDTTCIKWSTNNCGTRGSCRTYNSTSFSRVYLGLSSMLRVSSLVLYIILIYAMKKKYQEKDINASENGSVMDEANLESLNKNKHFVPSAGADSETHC", "assay": "Substrates uptake assay, HEK293A-OATP1B1 cells (3H-ES)", "assay_type": "in vitro ADME", "settings": "HEK293A-OATP1B1; 3H-ES 0.1 µM; 2 min"}}, "data": [{"compound": "CC(C)(O)[C@@H]1CC[C@@](C)([C@H]2CC[C@]3(C)[C@@H]2[C@H](O)C[C@@H]2[C@@]4(C)CC[C@H](O)C(C)(C)[C@@H]4CC[C@]23C)O1", "note": "[PDQ, (20S,24S)-dammar-20,24-epoxy-3β, 12β, 25-triol]", "values": [{"measurement": "DPM (14C-TEA uptake by OCT2)", "setting": "[1]; inhibitor 0.1 μM", "result": "994.3±112.3", "unit": "DPM"}, {"measurement": "Transport activity of OCT2 (main text: percentage inhibition)", "setting": "[1]; inhibitor 0.1 μM", "result": "101.6±11.5", "unit": "%"}, {"measurement": "DPM (14C-TEA uptake by OCT2)", "setting": "[1]; inhibitor 0.3 μM", "result": "741.3±35.0", "unit": "DPM"}, {"measurement": "Transport activity of OCT2 (main text: percentage inhibition)", "setting": "[1]; inhibitor 0.3 μM", "result": "75.8±3.6", "unit": "%"}, {"measurement": "DPM (14C-TEA uptake by OCT2)", "setting": "[1]; inhibitor 1 μM", "result": "712.3±115.3", "unit": "DPM"}, {"measurement": "Transport activity of OCT2 (main text: percentage inhibition)", "setting": "[1]; inhibitor 1 μM", "result": "72.8±11.8", "unit": "%"}, {"measurement": "DPM (14C-TEA uptake by OCT2)", "setting": "[1]; inhibitor 3 μM", "result": "661.7±93.5", "unit": "DPM"}, {"measurement": "Transport activity of OCT2 (main text: percentage inhibition)", "setting": "[1]; inhibitor 3 μM", "result": "67.6±9.6", "unit": "%"}, {"measurement": "DPM (14C-TEA uptake by OCT2)", "setting": "[1]; inhibitor 10 μM", "result": "612.0±28.7", "unit": "DPM"}, {"measurement": "Transport activity of OCT2 (main text: percentage inhibition)", "setting": "[1]; inhibitor 10 μM", "result": "62.6±2.9", "unit": "%"}, {"measurement": "DPM (14C-TEA uptake by OCT2)", "setting": "[1]; inhibitor 30 μM", "result": "578.0±29.5", "unit": "DPM"}, {"measurement": "IC50", "setting": "[2]", "result": 13.1, "unit": "µM"}]}]}
